Assay results taken from US12668845B2, “Methods for predicting drug responsiveness in cancer patients” (Allarity Therapeutics Europe ApS, priority 2018, dated 2026).

Key:
Test in all cases: Growth inhibition of cell lines treated with 2X-121
Format in all cases: cell-based
HCC1806 = conditions: Homo sapiens; cell line HCC1806, origin Breast; read-out: Measured growth inhibition IC50
MDA-MB-453 = conditions: Homo sapiens; cell line MDA-MB-453, origin Breast; read-out: Measured growth inhibition IC50
MCF-7 = conditions: Homo sapiens, MCF7; cell line MCF-7, origin Breast; read-out: Measured growth inhibition IC50
C3A = conditions: Homo sapiens; cell line C3A, origin HCC; read-out: Measured growth inhibition IC50
Description: (§1) The NCI60 panel of cell lines can be used to determine sensitivity to 2X-121, but it is also possible to use other cell line panels.
(§2) Baseline DNA chip measurements of 61 of the cancer cell lines in Table 1 (excluding M14 HEC-1 ECC-1 SNG-II HEC-88nu SR IM-9 Namalwa MC/CAR U266 JVM-13 NCEB-1 ARH-77) were performed using Affymetrix HG-U133Plus2 arrays and logit normalized. For each array, the logit transformation was performed followed by a Z-transformation to mean zero and SD 1, and correlated to growth inhibition (−log(GI50)). The expression level of each of the genes of Tables 2 and 3 in each cell line was correlated to the growth of those cell lines (log(GI50)) in the presence of 2X-121. The Pearson correlation coefficient was then determined to identify genes positively and negatively correlated to sensitivity to 2X-121. Tables 2 and 3 show the top positively correlated genes (the biomarkers of sensitivity) and negatively correlated genes (the biomarkers of resistance). In particular, genes with a Pearson correlation greater than 0.25 or below −0.25 can be classified as biomarkers of sensitivity or resistance, respectively.

HT-1080 = conditions: Homo sapiens; cell line HT-1080, origin Fibrosarcoma; read-out: Measured growth inhibition IC50
Description: as §1, §2

HT = conditions: Homo sapiens; cell line HT, origin DLBCL (GC); read-out: Measured growth inhibition IC50
Description: as §1, §2

JVM-2 = conditions: Homo sapiens; cell line JVM-2, origin MCL; read-out: Measured growth inhibition IC50
Description: as §1, §2

NCI-H446 = conditions: Homo sapiens; cell line NCI-H446, origin SCLC; read-out: Measured growth inhibition IC50
Description: as §1, §2

A549 = conditions: Homo sapiens; cell line A549, origin NSCLC; read-out: Measured growth inhibition IC50
HCT-15 = conditions: Homo sapiens; cell line HCT-15, origin Colon; read-out: Measured growth inhibition IC50
HEC-108 = conditions: cell line HEC-108, origin Endometrial; read-out: Measured growth inhibition IC50
HEC-59 = conditions: cell line HEC-59, origin Endometrial; read-out: Measured growth inhibition IC50
HEC-6 = conditions: cell line HEC-6, origin Endometrial; read-out: Measured growth inhibition IC50
SNG-M = conditions: cell line SNG-M, origin Endometrial; read-out: Measured growth inhibition IC50
KLE = conditions: Homo sapiens; cell line KLE, origin Endometrial; read-out: Measured growth inhibition IC50
HEC-265 = conditions: cell line HEC-265, origin Endometrial; read-out: Measured growth inhibition IC50
NCI-H524 = conditions: Homo sapiens; cell line NCI-H524, origin SCLC; read-out: Measured growth inhibition IC50
SR = conditions: Homo sapiens; cell line SR, origin B cell lymphoma; read-out: Measured growth inhibition IC50
IM-9 = conditions: Homo sapiens; cell line IM-9, origin B lymphoblast; read-out: Measured growth inhibition IC50
RL = conditions: Homo sapiens; cell line RL, origin NHL B cell lymphoma; read-out: Measured growth inhibition IC50
MC/CAR = conditions: cell line MC/CAR, origin Myeloma; read-out: Measured growth inhibition IC50
NCI-H929 = conditions: Homo sapiens; cell line NCI-H929, origin Myeloma; read-out: Measured growth inhibition IC50
U266 = conditions: Homo sapiens, U-266; cell line U266, origin Myeloma; read-out: Measured growth inhibition IC50
Toledo = conditions: Homo sapiens; cell line Toledo, origin DLBCL (GC); read-out: Measured growth inhibition IC50
NCEB-1 = conditions: NCEB1; cell line NCEB-1, origin MCL; read-out: Measured growth inhibition IC50
KG-1 = conditions: Homo sapiens; cell line KG-1, origin AML; read-out: Measured growth inhibition IC50
THP-1 = conditions: Homo sapiens; cell line THP-1, origin AML; read-out: Measured growth inhibition IC50

**Q.** For `O=c1[nH]nc2c3c(cccc13)N=C(CN1Cc3ccccc3C1)N2` [2X-121, 8-(isoindolin-2-ylmethyl)-2,9-dihydro-3H-pyridazino[3,4,5-de]quinazolin-3-one], which IC50 (HCC1806) is on record?
**A.** Its IC50 is 1800 nM.

**Q.** What about the IC50 (MDA-MB-453) of the same compound?
**A.** The IC50 was 6200 nM.

**Q.** What about the IC50 (MCF-7) of the same compound?
**A.** The IC50 was 1900 nM.

**Q.** And the IC50 (C3A)?
**A.** Its IC50 is 2540 nM.

**Q.** And the IC50 (HT-1080)?
**A.** Its IC50 is 830 nM.

**Q.** And the IC50 (HT)?
**A.** The IC50 was 660 nM.

**Q.** What about the IC50 (JVM-2) of the same compound?
**A.** The IC50 was 14000 nM.

**Q.** What about the IC50 (NCI-H446) of the same compound?
**A.** Its IC50 is 610 nM.

**Q.** And the IC50 (A549)?
**A.** The IC50 was 2200 nM.

**Q.** And the IC50 (HCT-15)?
**A.** Its IC50 is 2200 nM.

**Q.** What about the IC50 (HEC-108) of the same compound?
**A.** Its IC50 is 5970 nM.

**Q.** And the IC50 (HEC-59)?
**A.** Its IC50 is 2440 nM.

**Q.** What about the IC50 (HEC-6) of the same compound?
**A.** The IC50 was 1880 nM.

**Q.** And the IC50 (SNG-M)?
**A.** The IC50 was 1360 nM.

**Q.** What about the IC50 (KLE) of the same compound?
**A.** Its IC50 is 2590 nM.

**Q.** What about the IC50 (HEC-265) of the same compound?
**A.** The IC50 was 2400 nM.

**Q.** What about the IC50 (NCI-H524) of the same compound?
**A.** Its IC50 is 690 nM.

**Q.** What about the IC50 (SR) of the same compound?
**A.** Its IC50 is 260 nM.

**Q.** What about the IC50 (IM-9) of the same compound?
**A.** Its IC50 is 2100 nM.

**Q.** And the IC50 (RL)?
**A.** Its IC50 is 2500 nM.

**Q.** And the IC50 (MC/CAR)?
**A.** The IC50 was 2300 nM.

**Q.** What about the IC50 (NCI-H929) of the same compound?
**A.** The IC50 was 5200 nM.

**Q.** And the IC50 (U266)?
**A.** The IC50 was 6700 nM.

**Q.** And the IC50 (Toledo)?
**A.** The IC50 was 1600 nM.

**Q.** What about the IC50 (NCEB-1) of the same compound?
**A.** Its IC50 is 5300 nM.

**Q.** And the IC50 (KG-1)?
**A.** Its IC50 is 2000 nM.

**Q.** What about the IC50 (THP-1) of the same compound?
**A.** Its IC50 is 5400 nM.
